{"source": "patent US8993565B2", "about": "“(6-oxo-1,6-dihydropyrimidin-2-yl)amide derivatives, preparation thereof and pharmaceutical use thereof as AKT(PKB) phosphorylation inhibitors” (Sanofi, priority 2009, dated 2015)", "key": {"[1]": {"test_system": "AKT protein phosphorylated on serine 473 (pAKT-S473)", "test": "Study of pAKT expression in PC3 human prostate carcinoma cells measured by western blotting (Test A)", "format": "cell-based", "settings": "PC-3, inhibition of AKT phosphorylation (pAKT-S473), 1 to 2 hours incubation, absolute IC50, mean of two experiments", "protocol": "The inhibitory activity of the molecules on AKT phosphorylation is measured either by western blotting using the technique described below, or by the MSD Multi-spot Biomarker detection technique from Meso Scale Discovery also described below.\nStudy of pAKT Expression in PC3 Human Prostate Carcinoma Cells Measured by Western Blotting (Test A):\nOn day 2, the cells are incubated in the presence or absence of the test products for 1 to 2 hours at 37° C. in the presence of 5% CO2. The molecules, diluted in dimethyl sulphoxide (DMSO Sigma #D2650), are added from a 10-times concentrated stock solution, the final percentage of DMSO being 0.1%. The molecules are tested either at a single concentration of less than or equal to 10 μM, or at increasing concentrations in a range that can extend from less than 1 nM to 10 μM.\nAfter this incubation, the cells are lysed for the preparation of the proteins.\nThe lysate is centrifuged for 10 min at 6000 rpm. 155 μl of supernatant are recovered. 150 μl are incubated for denaturation for 5 min at 95° C. in the presence of 4× NuPAGE LDS Sample Buffer diluted 4-fold (InVitrogen ref NP0007) and of 10× NuPAGE Sample Reducing Agent diluted 10-fold (InVitrogen ref NP0009). These samples are then frozen at −20° C.\nThe gel is then transferred on to an Invitrolon PVDF membrane (Invitrogen #LC2007) permeabilised beforehand and for a few seconds in ethanol (Ethanol Fischer Scientific #E/0600DF/15).\nThe transfer is carried out in a Biorad tank at 30 volts overnight or at 60 volts for 3 hours, in the presence of 20× NUPAGE Transfer Buffer diluted 20-fold (InVitrogen ref NP0006).\nThe membrane is then saturated in saturating solution composed of TBS (10× Tris Buffered Saline, Sigma #T5912, diluted 10-fold), 0.1% Tween (Sigma #P5927) and 3% BSA (Bovine Albumin Serum Fraction V, Sigma #A4503) for 6 h after overnight transfer or else for 1 h after transfer for a period of 3 h.\nTwo rinses for min in washing solution composed of TBS and 0.1% Tween 20 are carried out before hybridisation of the secondary antibodies.\nThe secondary antibodies are diluted 110000th for the rabbit anti-Mouse IgG HRP antibody (W402 Promega) and to 110000th for the goat anti-Rabbit IgG HRP antibody (W401 Promega) in saturating solution, and then shaken for 1 h at ambient temperature.\nTwo rinses for 30 min in washing solution are carried out and then a rinse for 5 min in H2O is carried out in order to eliminate the remaining Tween 20.\nThe luminescence is read with the FujiFilm device (Ray Test).\nThe FUJI device measures the total luminescence signal obtained (AU) for each band selected. It then subtracts the background noise (BG) proportional to the size of the band selected (Area), said background noise being calculated from a specific background noise band, with a view to obtaining the specific signal (AU-BG) for each band. The band obtained in the absence of product and in the presence of 0.1% DMSO is considered to be the 100% signal. The software calculates the % specific activity (Ratio) obtained for each band selected as a function of this 100% signal. The percentage inhibition is calculated for each concentration according to the formula (100%−Ratio).\nTwo independent experiments make it possible to calculate the mean of the percentages of inhibition obtained at a given concentration for the products tested only at one concentration.\nTwo independent experiments make it possible to calculate the mean of the IC50s."}, "[2]": {"test_system": "AKT protein phosphorylated on serine 473 (P-AKT-S473)", "test": "Study of pAKT expression in PC3 human prostate carcinoma cells measured by the MSD Multi-spot Biomarker Detection technique (Test B)", "format": "cell-based", "settings": "PC-3, inhibition of AKT phosphorylation (P-AKT-S473), MSD sandwich immunoassay, 1 to 2 h incubation, absolute IC50, mean of 2 experiments", "how_it_was_run": "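Lysate P-AKT-S473 quantified by MSD electrochemiluminescent sandwich immunoassay; inhibition vs DMSO and cell-free background, IC50 averaged over 2 experiments.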"}}}
{"smiles": "CC(C)(C)OC(=O)NCCc1cccc(NC(=O)Cc2nc(N3CCOCC3)cc(=O)[nH]2)c1", "note": "[Example 46, 2-methylpropan-2-yl {2-[3-({[4-(morpholin-4-yl)-6-oxo-1,6-dihydropyrimidin-2-yl]acetyl}amino)phenyl]ethyl}-carbamate]", "values": [{"measurement": "IC50", "setting": "[1]", "result": 2.5, "unit": "µM"}, {"measurement": "melting point", "result": 194, "unit": "°C"}]}
{"smiles": "O=C(Cc1nc(N2CCOCC2)cc(=O)[nH]1)Nc1cccc(C2CC2)c1", "note": "[Example 36, N-(3-cyclopropylephenyl)-2-[4-(morpholin-4-yl)-6-oxo-1,6-dihydropyrimidin-2-yl]acetamide]", "values": [{"measurement": "IC50", "setting": "[1]", "result": 0.2, "unit": "µM"}, {"measurement": "melting point", "result": 246, "unit": "°C"}]}
{"smiles": "O=C(Cc1nc(N2CCOCC2)cc(=O)[nH]1)Nc1ccc(F)c(CO)c1", "note": "[Example 35, N-[4-fluoro-3-(hydroxymethyl)phenyl]-2-[4-(morpholin-4-yl)-6-oxo-1,6-dihydropyrimidin-2-yl]acetamide]", "values": [{"measurement": "IC50", "setting": "[1]", "result": 10, "unit": "µM"}, {"measurement": "melting point", "result": "> 260", "unit": "°C"}]}
{"smiles": "O=C(Cc1nc(N2CCOCC2)cc(=O)[nH]1)Nc1cccc2c1NCCC2", "note": "[Example 148, 2-[4-(morpholin-4-yl)-6-oxo-1,6-dihydropyrimidin-2-yl]-N-(1,2,3,4-tetrahydroquinolin-8-yl)acetamide]", "values": [{"measurement": "IC50", "setting": "[2]", "result": 0.234, "unit": "µM"}, {"measurement": "melting point", "result": 232, "unit": "°C"}]}
{"smiles": "CC1Cc2ccccc2N1C(=O)Cc1nc(N2CCOCC2)cc(=O)n1C", "note": "(stereo not drawn) [Example 123, 3-methyl-2-[2-(2-methyl-2,3-dihydro-1H-indol-1-yl)-2-oxoethyl]-6-(morpholin-4-yl)pyrimidin-4(3H)-one]", "values": [{"measurement": "IC50", "setting": "[2]", "result": 0.077, "unit": "µM"}, {"measurement": "melting point", "result": 148, "unit": "°C"}]}
{"smiles": "CCn1c(CC(=O)Nc2ccc(F)cc2)nc(N2CCOCC2)cc1=O", "note": "[Example 70, 2-[1-ethyl-4-(morpholin-4-yl)-6-oxo-1,6-dihydropyrimidin-2-yl]-N-(4-fluorophenyl)acetamide]", "values": [{"measurement": "IC50", "setting": "[2]", "result": 0.195, "unit": "µM"}, {"measurement": "melting point", "result": 238, "unit": "°C"}]}
{"smiles": "CN(C)C[C@H]1CN(C(=O)Cc2nc(N3CCOCC3)cc(=O)[nH]2)c2ccccc21", "note": "[Example 136, 2-(2-{(3S)-3-[(dimethylamino)methyl]-2,3-dihydro-1H-indol-1-yl}-2-oxoethyl)-6-(morpholin-4-yl)pyrimidin-4(3H)-one]", "values": [{"measurement": "IC50", "setting": "[2]", "result": 0.026, "unit": "µM"}, {"measurement": "melting point", "result": 256, "unit": "°C"}]}
{"smiles": "Cn1c(CC(=O)Nc2cccc(Br)c2)nc(N2CCOCC2)cc1=O", "note": "[Example 69, N-(3-bromophenyl)-2-[1-methyl-4-(morpholin-4-yl)-6-oxo-1,6-dihydropyrimidin-2-yl]acetamide]", "values": [{"measurement": "IC50", "setting": "[1]", "result": 0.25, "unit": "µM"}, {"measurement": "melting point", "result": 266, "unit": "°C"}]}
{"smiles": "O=C(Cc1nc(N2CCOCC2)cc(=O)[nH]1)N1CCc2ccccc2C1", "note": "[Example 111, 2-[2-(3,4-dihydroisoquinolin-2(1H)-yl)-2-oxoethyl]-6-(morpholin-4-yl)pyrimidin-4(3H)-one]", "values": [{"measurement": "IC50", "setting": "[2]", "result": 0.301, "unit": "µM"}, {"measurement": "melting point", "result": 107.5, "unit": "°C"}]}
{"smiles": "O=C(Cc1nc(N2CCOCC2)cc(=O)[nH]1)N1CCc2c(CO)cccc21", "note": "[Example 132, 2-{2-[4-(hydroxymethyl)-2,3-dihydro-1H-indol-1-yl]-2-oxoethyl}-6-(morpholin-4-yl)pyrimidin-4(3H)-one]", "values": [{"measurement": "IC50", "setting": "[2]", "result": 0.533, "unit": "µM"}, {"measurement": "melting point", "result": 234, "unit": "°C"}]}
{"smiles": "O=C(Cc1nc(N2CCOCC2)cc(=O)[nH]1)Nc1cccc2c1OCCN2", "note": "[Example 143, N-(3,4-dihydro-2H-1,4-benzoxazin-8-yl)-2-[4-(morpholin-4-yl)-6-oxo-1,6-dihydropyrimidin-2-yl]acetamide]", "values": [{"measurement": "IC50", "setting": "[2]", "result": 0.473, "unit": "µM"}, {"measurement": "melting point", "result": 243, "unit": "°C"}]}
{"smiles": "Cc1cccc2c1CCN2C(=O)Cc1nc(N2CCOCC2)cc(=O)n1C", "note": "[Example 114, 3-methyl-2-[2-(4-methyl-2,3-dihydro-1H-indol-1-yl)-2-oxoethyl]-6-(morpholin-4-yl)pyrimidin-4(3H)-one]", "values": [{"measurement": "IC50", "setting": "[2]", "result": 0.026, "unit": "µM"}, {"measurement": "melting point", "result": 239, "unit": "°C"}]}
{"smiles": "Cn1c(CC(=O)N2CCc3c(Cl)cccc32)nc(N2CCOCC2)cc1=O", "note": "[Example 104, 2-[2-(4-chloro-2,3-dihydro-1H-indol-1-yl)-2-oxoethyl]-3-methyl-6-(morpholin-4-yl)pyrimidin-4(3H)-one]", "values": [{"measurement": "IC50", "setting": "[2]", "result": 0.042, "unit": "µM"}, {"measurement": "melting point", "result": 235, "unit": "°C"}]}
{"smiles": "Cn1c(CC(=O)Nc2cccc3sccc23)nc(N2CCOCC2)cc1=O", "note": "[Example 130, N-(1-benzothiophen-4-yl)-2-[1-methyl-4-(morpholin-4-yl)-6-oxo-1,6-dihydropyrimidin-2-yl]acetamide]", "values": [{"measurement": "IC50", "setting": "[2]", "result": 0.07, "unit": "µM"}, {"measurement": "melting point", "result": 254, "unit": "°C"}]}
{"smiles": "O=C(Cc1nc(N2CCOCC2)cc(=O)[nH]1)Nc1ccccc1O", "note": "[Example 37, N-(2-hydroxyphenyl)-2-[4-(morpholin-4-yl)-6-oxo-1,6-dihydropyrimidin-2-yl]acetamide]", "values": [{"measurement": "IC50", "setting": "[1]", "result": 10, "unit": "µM"}, {"measurement": "melting point", "result": "> 260", "unit": "°C"}]}
{"smiles": "CC1CN(C(=O)Cc2nc(N3CCOCC3)cc(=O)n2C)c2ccccc21", "note": "(stereo not drawn) [Example 119, 3-methyl-2-[2-(3-methyl-2,3-dihydro-1H-indol-1-yl)-2-oxoethyl]-6-(morpholin-4-yl)pyrimidin-4(3H)-one]", "values": [{"measurement": "IC50", "setting": "[2]", "result": 0.194, "unit": "µM"}, {"measurement": "melting point", "result": 225, "unit": "°C"}]}
{"smiles": "O=C(Cc1nc(N2CCOCC2)cc(=O)[nH]1)Nc1cccc(F)c1F", "note": "[Example 12, N-(2,3-difluorophenyl)-2-[4-(morpholin-4-yl)-6-oxo-1,6-dihydropyrimidin-2-yl]acetamide]", "values": [{"measurement": "IC50", "setting": "[1]", "result": 0.737, "unit": "µM"}, {"measurement": "melting point", "result": 248, "unit": "°C"}]}
{"smiles": "Cn1c(CC(=O)N2CCc3c(Br)cccc32)nc(N2CCOCC2)cc1=O", "note": "[Example 116, 2-[2-(4-bromo-2,3-dihydro-1 H-indol-1-yl)-2-oxoethyl]-3-methyl-6-(morpholin-4-yl)pyrimidin-4(3H)-one]", "values": [{"measurement": "IC50", "setting": "[2]", "result": 0.051, "unit": "µM"}, {"measurement": "melting point", "result": 226, "unit": "°C"}]}
{"smiles": "O=C(Cc1nc(N2CCOCC2)cc(=O)[nH]1)Nc1cccc(OC(F)(F)C(F)F)c1", "note": "[Example 75, 2-[4-(morpholin-4-yl)-6-oxo-1,6-dihydropyrimidin-2-yl]-N-[3-(1,1,2,2-tetrafluoroethoxy)phenyl]acetamide]", "values": [{"measurement": "IC50", "setting": "[2]", "result": 0.069, "unit": "µM"}, {"measurement": "melting point", "result": 229, "unit": "°C"}]}
{"smiles": "O=C(Cc1nc(N2CCOCC2)cc(=O)[nH]1)N1c2ccccc2CC1CO", "note": "(stereo not drawn) [Example 106, 2-{2-[2-(hydroxymethyl)-2,3-dihydro-1 H-indol-1-yl]-2-oxoethyl}-6-(morpholin-4-yl)pyrimidin-4(3H)-one]", "values": [{"measurement": "IC50", "setting": "[2]", "result": 0.027, "unit": "µM"}, {"measurement": "melting point", "result": 200, "unit": "°C"}]}
{"smiles": "COCc1cc(NC(=O)Cc2nc(N3CCOCC3)cc(=O)[nH]2)ccc1F", "note": "[Example 73, N-[4-fluoro-3-(methoxymethyl)phenyl]-2-[4-(morpholin-4-yl)-6-oxo-1,6-dihydropyrimidin-2-yl]acetamide]", "values": [{"measurement": "IC50", "setting": "[1]", "result": 0.65, "unit": "µM"}, {"measurement": "melting point", "result": 220, "unit": "°C"}]}
